# Laboratory results: doi:10.1101/2024.08.25.609621 (bioRxiv, 2024)
# Read-outs that look alike come from different tables or passages of the source.
# Assays:
# [1] = target: SARS-CoV-2 NSP3 macrodomain (Mac1) (Severe acute respiratory syndrome coronavirus 2, UniProt P0DTD1); assay: biochemical; type: binding; details: for Ligand efficiency (binding enery per heavy atom): from SARS CoV-2 macrodomain HTRF assay
# [2] = target: SARS-CoV-2 NSP3 macrodomain (Mac1), P43 crystal form (Severe acute respiratory syndrome coronavirus 2, UniProt P0DTD1); type: binding; details: for Number of isomers bound: ligand modeling in Mac1 crystal structure; for Isomers modeled: stereoisomer(s) modeled in Mac1 crystal structure
# [3] = dose-response, read-out: SARS CoV-2 macrodomain HTRF assay: IC50
# [4] = dose-response, read-out: SARS CoV-2 macrodomain HTRF assay: Ki
# [5] = preliminary screen, compound at 200 μM, mean of 3-4 technical replicates, read-out: % competition in HTRF assay
Structure (SMILES),"IC50 [1, 3] [µM]","Ki [1, 4] [µM]",Ligand efficiency (binding enery per heavy atom) [1],Number of isomers bound [2],Isomers modeled [2],"inhibition at 200 µM ([1]; Single dose, concentration 200 μM, read-out: Average % competition) [%]","inhibition at 200 µM [1, 5] [%]","inhibition at 200 µM ([1]; Single dose, concentration 200 μM, read-out: SARS CoV-2 macrodomain HTRF assay: Average % competition) [%]","IC50 ([1]; SARS CoV-2 macrodomain HTRF assay, dose-response, read-out: IC50) [µM]","Ki ([1]; SARS CoV-2 macrodomain HTRF assay, dose-response, read-out: Ki) [µM]",IC50 ([1]; read-out: HTRF IC50) [µM]
OC1(CNc2ncnc3[nH]ccc23)CCSCC1 [AVI-4319],170,160,0.29,1,achiral,,,,,,
OC1(CNc2ncnc3[nH]ccc23)CC2CCC1CC2 (stereo not drawn) [AVI-4320],83,77,0.28,1,,,,,,,
OC1(CNc2ncnc3[nH]ccc23)CCCSC1 (stereo not drawn) [AVI-4322],53,49,0.33,1,,,,,,,
Cc1c[nH]c2ncnc(NCC3(O)CCC(C)CC3)c12 (stereo not drawn) [AVI-4331],210,,0.26,1,rr,,,,,,
CC(O)C(C)Nc1ncnc2[nH]ccc12 (stereo not drawn) [AVI-5158],,,,2,"RS,RR",32,32,,,,
CC(C)C1CCCN1c1ncnc2[nH]ccc12 (stereo not drawn) [AVI-5216],,,,1,,,35,35,,,
CC(C)(CO)Nc1ncnc2[nH]ccc12 [AVI-5266],,,,1,achiral,,,,32,30,110
CC1(C)CCN(c2ncnc3[nH]ccc23)C(CO)C1 (stereo not drawn) [AVI-5994],68,63,0.31,1,"S,S",,,,,,
O[C@H]1CC[C@H]2CCN(c3ncnc4[nH]ccc34)[C@H]21 [AVI-5997],37,34,0.34,1,SSR,,,,,,
OCC1C=CCCN1c1ncnc2[nH]ccc12 (stereo not drawn) [AVI-5998],160,150,0.31,1,,,,,,,
OCC1CC=CCN1c1ncnc2[nH]ccc12 (stereo not drawn) [AVI-6002],52,48,0.35,1,,,,,,,
OC1(CNc2ncnc3[nH]ccc23)CCCCC1 [AVI-6217],42,39,0.34,1,achiral,,,,,,
OC1CCC(O)(CNc2ncnc3[nH]ccc23)CC1 (stereo not drawn) [AVI-6220],260,240,0.26,1,"rr,rr",,,,,,
